One experiment concerns the target human wildtype CFTR (Homo sapiens, UniProt P13569). In words: Fluorescence plate reader assay of iodide influx in FRT cells co-expressing CFTR and YFP halide sensor.
Details: not given
Sequence of human wildtype CFTR (P13569 whole entry): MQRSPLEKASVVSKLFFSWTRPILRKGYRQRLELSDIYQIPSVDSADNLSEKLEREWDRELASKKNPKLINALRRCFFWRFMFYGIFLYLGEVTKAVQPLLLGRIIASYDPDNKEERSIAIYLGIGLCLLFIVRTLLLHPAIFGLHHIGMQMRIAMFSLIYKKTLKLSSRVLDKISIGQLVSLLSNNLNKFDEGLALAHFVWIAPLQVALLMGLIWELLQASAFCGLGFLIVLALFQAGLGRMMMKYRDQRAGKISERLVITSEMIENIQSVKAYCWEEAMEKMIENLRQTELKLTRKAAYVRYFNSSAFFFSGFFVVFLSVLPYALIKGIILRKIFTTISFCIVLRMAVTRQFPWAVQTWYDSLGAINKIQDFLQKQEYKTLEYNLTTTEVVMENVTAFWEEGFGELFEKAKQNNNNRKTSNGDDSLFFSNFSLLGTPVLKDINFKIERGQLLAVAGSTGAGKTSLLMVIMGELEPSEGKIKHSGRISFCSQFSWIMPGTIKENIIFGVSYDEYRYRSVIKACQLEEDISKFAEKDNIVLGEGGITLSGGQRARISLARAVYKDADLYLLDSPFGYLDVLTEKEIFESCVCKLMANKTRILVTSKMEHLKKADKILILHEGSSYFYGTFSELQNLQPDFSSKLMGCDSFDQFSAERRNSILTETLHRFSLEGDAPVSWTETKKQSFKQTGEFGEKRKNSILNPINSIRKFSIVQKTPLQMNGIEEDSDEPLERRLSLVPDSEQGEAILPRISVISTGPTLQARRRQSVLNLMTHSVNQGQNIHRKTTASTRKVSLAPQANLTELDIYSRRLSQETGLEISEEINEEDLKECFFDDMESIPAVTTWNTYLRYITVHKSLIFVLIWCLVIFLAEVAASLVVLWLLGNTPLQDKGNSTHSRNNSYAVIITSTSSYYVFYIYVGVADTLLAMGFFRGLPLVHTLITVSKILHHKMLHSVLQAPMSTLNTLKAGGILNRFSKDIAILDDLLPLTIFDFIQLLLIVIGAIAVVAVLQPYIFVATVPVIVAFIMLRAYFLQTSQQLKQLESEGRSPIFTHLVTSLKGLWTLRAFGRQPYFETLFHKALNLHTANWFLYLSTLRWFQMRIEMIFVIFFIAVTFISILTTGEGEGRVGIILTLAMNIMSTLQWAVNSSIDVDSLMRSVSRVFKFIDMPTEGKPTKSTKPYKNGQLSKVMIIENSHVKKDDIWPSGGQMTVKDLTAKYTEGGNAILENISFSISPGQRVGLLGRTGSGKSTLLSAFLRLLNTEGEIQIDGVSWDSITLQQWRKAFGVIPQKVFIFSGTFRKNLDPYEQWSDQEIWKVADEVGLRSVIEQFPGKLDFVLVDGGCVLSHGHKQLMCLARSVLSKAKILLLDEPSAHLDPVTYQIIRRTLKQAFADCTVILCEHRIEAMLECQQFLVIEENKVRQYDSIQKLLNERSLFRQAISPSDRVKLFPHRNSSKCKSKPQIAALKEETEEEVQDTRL
Turning to `Cn1c(=O)c(-c2cc([N+](=O)[O-])ccc2N)nc2ccccc21` [CFTRact-J052], the “CFTR activity of commercial analogs relative to CFTRact-J027” value is recorded as “greatly reduced activity”.

By EC50 is commonly meant the concentration at which the effect is half-maximal. As to `O=c1c(-c2cc(Br)ccc2NCc2ccccc2)nc2ccccc2n1Cc1ccccc1` [CFTRact-J056], the “CFTR activity of commercial analogs relative to CFTRact-J027” value is listed as “greatly reduced activity” and the EC50 was around 15000 nM. Turning to `CC(=O)Nc1ccccc1-c1nc2ccccc2n(Cc2ccccc2)c1=O` [CFTRact-J057], the “CFTR activity of commercial analogs relative to CFTRact-J027” value is “greatly reduced activity” and the EC50 was around 15000 nM. `CC(=O)Nc1ccccc1-c1nc2ccccc2n(Cc2cccc(Br)c2)c1=O` [CFTRact-J059] gave an EC50 of around 19000 nM. `CC(=O)Nc1ccc(C)cc1-c1nc2ccccc2n(Cc2ccccc2)c1=O` [CFTRact-J060] showed an EC50 above 25000 nM. `CC(=O)Nc1ccccc1-c1nc2ccccc2n(CCc2ccccc2)c1=O` [CFTRact-J061]: the EC50 was around 20000 nM. Same read-out and setting: the result for `Nc1ccc([N+](=O)[O-])cc1-c1nc2ccccc2n(Cc2ccc(Br)cc2)c1=O` [CFTRact-J102, 3-(2-Amino-5-nitrophenyl)-1-(4-bromobenzyl)quinoxalin-2(1H)-one] reads above 25000 nM. The same measure, in the same setting: the result for `Nc1ccc([N+](=O)[O-])cc1-c1nc2ccccc2n(Cc2cccc(Br)c2)c1=O` [CFTRact-J103, 3-(2-Amino-5-nitrophenyl)-1-(3-bromobenzyl)quinoxalin-2(1H)-one] reads 1200 nM.

In the case of `Nc1ccc([N+](=O)[O-])cc1-c1nc2ccccc2n(Cc2ccccc2Br)c1=O` [CFTRact-J104, 3-(2-Amino-5-nitrophenyl)-1-(2-bromobenzyl)quinoxalin-2(1H)-one], the EC50 worked out at 7300 nM. Same read-out and setting: the same measure for `Nc1ccc([N+](=O)[O-])cc1-c1nc2cc(F)ccc2n(Cc2ccccc2)c1=O` [CFTRact-J105, 3-(2-Amino-5-nitrophenyl)-1-benzyl-6-fluoroquinoxalin-2(1H)-one]: 530 nM; for `CC(=O)Nc1ccc([N+](=O)[O-])cc1-c1nc2ccccc2n(Cc2ccccc2)c1=O` [CFTRact-J109, N-(2-(4-Benzyl-3-oxo-3,4-dihydroquinoxalin-2-yl)-4-nitrophenyl)-acetamide]: 1500 nM. Same read-out and setting: the result for `Nc1ccc(F)cc1-c1nc2ccccc2n(Cc2ccccc2)c1=O` [CFTRact-J133, 3-(2-Amino-5-fluorophenyl)-1-benzylquinoxalin-2(1H)-one] reads 790 nM; that for `Nc1ccc(Br)cc1-c1nc2ccccc2n(Cc2ccccc2)c1=O` [CFTRact-J134, 3-(2-Amino-5-bromophenyl)-1-benzylquinoxalin-2(1H)-one], 310 nM; that for `Nc1ccc([N+](=O)[O-])cc1-c1nc2cc(Br)ccc2n(Cc2ccccc2)c1=O` [CFTRact-J136, 3-(2-Amino-5-nitrophenyl)-1-benzyl-6-bromoquinoxalin-2(1H)-one], 260 nM. Still for that read-out and setting: the result for `Cc1ccc2c(c1)nc(-c1c(N)cccc1Br)c(=O)n2Cc1ccccc1` [CFTRact-J139, 3-(2-Amino-6-bromophenyl)-1-benzyl-6-methylquinoxalin-2(1H)-one] reads 650 nM. `Cc1ccc2c(c1)nc(-c1cc(F)ccc1N)c(=O)n2Cc1ccccc1` [CFTRact-J140, 3-(2-Amino-5-fluorophenyl)-1-benzyl-6-methylquinoxalin-2(1H)-one]: the EC50 came out at 700 nM. `Cc1ccc2c(c1)nc(-c1cc(I)ccc1N)c(=O)n2Cc1ccccc1` [CFTRact-J141, 3-(2-Amino-5-iodophenyl)-1-benzyl-6-methylquinoxalin-2(1H)-one] displayed an EC50 of 470 nM. `Nc1cccc(Br)c1-c1nc2ccccc2n(Cc2ccccc2)c1=O` [CFTRact-J142, 3-(2-Amino-6-bromophenyl)-1-benzylquinoxalin-2(1H)-one] returned an EC50 of 1500 nM. Same read-out and setting: the same measure for `Nc1ccc(I)cc1-c1nc2ccccc2n(Cc2ccccc2[N+](=O)[O-])c1=O` [CFTRact-J143, 3-(2-Amino-5-iodophenyl)-1-(2-nitrobenzyl)quinoxalin-2(1H)-one]: above 25000 nM. Regarding `N#Cc1ccccc1Cn1c(=O)c(-c2cc(I)ccc2N)nc2ccccc21` [CFTRact-J144, 3-(2-Amino-5-iodophenyl)-1-(2-cyanobenzyl)quinoxalin-2(1H)-one], the EC50 is above 25000 nM.

Compound `O=C(O)c1ccc([N+](=O)[O-])c(-c2nc3ccccc3n(Cc3ccccc3)c2=O)c1` [Compound 1b, 3-(4-Benzyl-3-oxo-3,4-dihydroquinoxalin-2-yl)-4-nitrobenzoic acid] yielded an EC50 above 10000 nM. Still for that read-out and setting: the same measure for `COC(=O)c1ccc(N)c(-c2nc3ccccc3n(Cc3ccccc3)c2=O)c1` [Compound 1j, Methyl 4-amino-3-(4-benzyl-3-oxo-3,4-dihydroquinoxalin-2-yl)benzoate]: 1000 nM. Same read-out and setting: the same measure for `Nc1ccc(C(=O)O)cc1-c1nc2ccccc2n(Cc2ccccc2)c1=O` [Compound 1k, 4-Amino-3-(4-benzyl-3-oxo-3,4-dihydroquinoxalin-2-yl)benzoic acid]: above 10000 nM. The same measure, in the same setting: the result for `O=c1c(-c2cccc([N+](=O)[O-])c2)nc2cc(Cl)c(Cl)cc2n1Cc1ccccc1` [Compound 2d, 1-Benzyl-6,7-dichloro-3-(3-nitrophenyl)quinoxalin-2(1H)-one] reads above 10000 nM; that for `O=c1c(-c2cccc([N+](=O)[O-])c2)nc2cc(F)c(F)cc2n1Cc1ccccc1` [Compound 2g, 1-Benzyl-6,7-difluoro-3-(3-nitrophenyl)quinoxalin-2(1H)-one], above 10000 nM; that for `Cc1cccc2nc(-c3cccc([N+](=O)[O-])c3)c(=O)n(Cc3ccccc3)c12` [Compound 2h, 1-Benzyl-8-methyl-3-(3-nitrophenyl)quinoxalin-2(1H)-one], above 10000 nM.

The compound `Cc1cc2nc(-c3cccc([N+](=O)[O-])c3)c(=O)n(Cc3ccccc3)c2cc1C` [Compound 2i, 1-Benzyl-6,7-dimethyl-3-(3-nitrophenyl)quinoxalin-2(1H)-one] gave an EC50 above 10000 nM. The same measure, in the same setting: the same measure for `O=c1[nH]c2ccccc2nc1-c1cccc([N+](=O)[O-])c1` [Compound 3a, 3-(3-Nitrophenyl)quinoxalin-2(1H)-one]: above 10000 nM; for `Cn1c(=O)c(-c2cccc([N+](=O)[O-])c2)nc2ccccc21` [Compound 3b, 1-Methyl-3-(3-nitrophenyl)quinoxalin-2(1H)-one]: above 10000 nM.

Still in this experiment, the particulars now being: plate reader assay.
In the case of `O=c1c(-c2cccc([N+](=O)[O-])c2)nc2ccc(Br)cc2n1Cc1ccccc1` [Compound 2e, 1-Benzyl-7-bromo-3-(3-nitrophenyl)quinoxalin-2(1H)-one], the “EC50, variation in the quinoxalinone core” value is “EC50 = Inactive”. As for `O=c1c(-c2cccc([N+](=O)[O-])c2)nc2ccccc2n1Cc1cccc2ccccc12` [Compound 3f, 1-(Naphthalen-1-ylmethyl)-3-(3-nitrophenyl)quinoxalin-2(1H)-one], the “EC50, variation in the N1-substituent” value is on record as “EC50 = Inactive”.

Still in this experiment, the particulars now being: read-out: EC50, variation in the 3-aryl ring; plate reader assay.
As for `O=c1c(-c2ccccc2[N+](=O)[O-])nc2ccccc2n1Cc1ccccc1` [Compound 1d, 1-Benzyl-3-(2-nitrophenyl)quinoxalin-2(1H)-one], the EC50 was 1000 nM. On the same count and under the same terms, the same measure for `O=c1c(-c2ccc([N+](=O)[O-])cc2)nc2ccccc2n1Cc1ccccc1` [Compound 1e, 1-Benzyl-3-(4-nitrophenyl)quinoxalin-2(1H)-one]: 1000 nM. With `O=c1c(-c2ccc(C(F)(F)F)cc2)nc2ccccc2n1Cc1ccccc1` [Compound 1f, 1-Benzyl-3-(4-(trifluoromethyl)phenyl)quinoxalin-2(1H)-one], the EC50 came out at 1000 nM.

Turning to `O=c1c(-c2cccc(Br)c2)nc2ccccc2n1Cc1ccccc1` [Compound 1g, 1-Benzyl-3-(3-bromophenyl)quinoxalin-2(1H)-one], the EC50 was found to be 330 nM. On the same count and under the same terms, the result for `O=c1c(-c2ccccc2)nc2ccccc2n1Cc1ccccc1` [Compound 1h, 1-Benzyl-3-phenylquinoxalin-2(1H)-one] reads 5000 nM. Regarding `O=c1c(-c2ccc(F)c([N+](=O)[O-])c2)nc2ccccc2n1Cc1ccccc1` [Compound 1i, 1-Benzyl-3-(4-fluoro-3-nitrophenyl)quinoxalin-2(1H)-one], the EC50 is 690 nM. On to `COC(=O)c1ccc(N)c(-c2nc3ccccc3n(Cc3ccccc3)c2=O)c1` [Compound 1j, Methyl 4-amino-3-(4-benzyl-3-oxo-3,4-dihydroquinoxalin-2-yl)benzoate], for which the EC50 was 550 nM. Still for that read-out and setting: the same measure for `O=c1c(-c2ccc3nonc3c2)nc2ccccc2n1Cc1ccccc1` [Compound 1m, 3-(Benzo[c][1,2,5]oxadiazol-5-yl)-1-benzylquinoxalin-2(1H)-one]: 18 nM.

Still in this experiment, the particulars now being: read-out: EC50, variation in the N1-substituent; plate reader assay.
As for `CCn1c(=O)c(-c2cccc([N+](=O)[O-])c2)nc2ccccc21` [Compound 3c, 1-Ethyl-3-(3-nitrophenyl)quinoxalin-2(1H)-one], the EC50 came out at 65 nM.

`CCCn1c(=O)c(-c2cccc([N+](=O)[O-])c2)nc2ccccc21` [Compound 3d, 1-Propyl-3-(3-nitrophenyl)quinoxalin-2(1H)-one]: the EC50 amounted to 177 nM. The same measure, in the same setting: the same measure for `C=CCn1c(=O)c(-c2cccc([N+](=O)[O-])c2)nc2ccccc21` [Compound 3e, 1-Allyl-3-(3-nitrophenyl)quinoxalin-2(1H)-one]: 55 nM; for `O=c1c(-c2cccc([N+](=O)[O-])c2)nc2ccccc2n1Cc1ccc2ccccc2c1` [Compound 3g, 1-(Naphthalen-2-ylmethyl)-3-(3-nitrophenyl)quinoxalin-2(1H)-one]: 4300 nM.

Staying with this experiment, now noted: read-out: EC50, variation in the quinoxalinone core; plate reader assay.
`O=c1c(-c2cccc([N+](=O)[O-])c2)nc2ccc(Cl)cc2n1Cc1ccccc1` [Compound 2a, 1-Benzyl-7-chloro-3-(3-nitrophenyl)quinoxalin-2(1H)-one]: the EC50 amounted to 760 nM. `O=c1c(-c2cccc([N+](=O)[O-])c2)nc2cc(Cl)ccc2n1Cc1ccccc1` [Compound 2b, 1-Benzyl-6-chloro-3-(3-nitrophenyl)quinoxalin-2(1H)-one]: the EC50 was 70 nM. Take `O=c1c(-c2cccc([N+](=O)[O-])c2)nc2c(Cl)cccc2n1Cc1ccccc1` [Compound 2c, 1-Benzyl-5-chloro-3-(3-nitrophenyl)quinoxalin-2(1H)-one]: the EC50 was 110 nM. In the case of `O=c1c(-c2cccc([N+](=O)[O-])c2)nc2cc(Br)ccc2n1Cc1ccccc1` [Compound 2f, 1-Benzyl-6-bromo-3-(3-nitrophenyl)quinoxalin-2(1H)-one], the EC50 was determined as 63 nM.

The record behind these values is patent US11084795B2, “CFTR regulators and methods of use thereof” (The Regents of the University of California, priority 2015, dated 2021).
